Results reported in patent US8247552B2, “Analogs of dehydrophenylahistins and their therapeutic use” (Nereus Pharmaceuticals, Inc., priority 2002, dated 2012).
≈ marks a conversion by molar mass, not a printed value. Like-named read-outs stand apart in the source and are kept apart here.

Assays:
HT-29 human colon cells = assay: Tumor cytotoxicity / cell growth inhibition assay, resazurin fluorescence, 48 h; format: cell-based; conditions: for EC50: Homo sapiens
[1] = system: MES-SA/Dx5 (Taxol resistant) human uterine sarcoma; assay: Cytotoxicity / growth inhibition in multidrug resistant uterine sarcoma cells; format: cell-based
Procedure: 1) Human Uterine Sarcoma Tumor Cell Line Pair: MES-SA (Taxol Sensitive) and MES-SA/Dx5 (Taxol Resistant).
HL-60 and HL-60/MX2 cells were both seeded at 5×10^4 cells/well in 90 μl complete media into 96 well plates on the day of compound addition. […] Ten μl volumes of the 10× serial dilutions were added to the test wells in triplicate and the plates returned to the incubator for 48 hours.
Resazurin dye in medium without cells was used to determine the background, which was subtracted from the data for all experimental wells.
The multidrug resistant MES-SA/Dx5 tumor cell line was derived from the human uterine sarcoma MES-SA tumor cell line and expresses elevated P-Glycoprotein (P-gp), an ATP dependent efflux pump. […] Paclitaxel, a known substrate of the P-gp pump was included as a control.

MCF-7 human breast tumor = assay: MCF-7 Human Breast Tumor Xenograft Model; format: in vivo, mice; conditions: combination with taxotere
Procedure: Animals used were (exceptions are indicated for individual studies): female nude mice (nu/nu) between 5 and 6 weeks of age (˜20 g, Harlan); group size was 9-10 mice per group unless otherwise indicated.
Female nude mice (˜20 g) were implanted s.c. with 21-day release estrogen (0.25 mg) pellets 24 hours prior to the s.c. implantation with MCF-7 tumor fragments (harvested from s.c. tumors in nude mice hosts). The study then proceeded as described for the HT-29 model, using taxotere as the standard chemotherapy agent.
In this model unless otherwise noted for the individual study, the novel compounds were injected via the intraperitoneal route daily on Days 1-5, inclusive (qdx5); taxotere was administered intravenously on Days 1, 3 and 5 (qodx3).
The doses of the compounds were administered on Days 1, 2, 3, 4, and 7; Taxotere was administered on Days 1, 3 and 7.

Trichophyton rubrum = assay: Antifungal susceptibility testing (NCCLS M38-A), MIC/MFC; format: cell-based; conditions: for antifungal potency compared with griseofulvin: dermatophyte isolates
Procedure: (§1) Specifically, disclosed compounds were evaluated alongside commercially available microtubulin inhibitors as well as recognized antifungal agents.
(§2) Microorganisms against which these compounds were tested included: Candida albicans, Candida glabrata, Aspergillus fumigatus, Trichophyton rubrum, Trichophyton mentagrophytes, Epidermophyton floccosum. With the exception of Candida glabrata (one isolate), two isolates of each species were tested.
(§3) The minimum lethal concentration (MLC) was determined by plating […] from the MIC concentration and each concentration above the MIC. […] When a MIC was obtained, a minimum fungicidal concentration (MFC) was determined to assess the fungistatic/fungicidal nature of the compound.

HuVEC cells = assay: Microtubule (tubulin) depolymerization, α-tubulin staining; conditions: 2 μM, thirty minutes exposure
[2] = system: Trichophyton mentagrophytes; assay: Antifungal susceptibility testing (NCCLS M38-A), MIC/MFC; format: cell-based
Procedure: Specifically, disclosed compounds were evaluated alongside commercially available microtubulin inhibitors as well as recognized antifungal agents. […].
as §2
Drug concentrations were 0.03-16 μg/ml for the investigational compounds, 0.015-8 μg/ml for itraconazole and griseofulvin.
as §3, with “compound. […] The compound is scored as fungistatic if the cells are able to resume growth and fungicidal if no regrowth is possible because the compound had killed the organisms.” for “compound.”

[3] = system: MCF7 cells (GFP-alpha-tubulin); assay: Microtubule dynamic instability in living MCF7 cells (time-lapse microscopy); format: cell-based, human
Candida albicans = assay: Antifungal susceptibility testing (NCCLS M38-A), MIC/MFC; format: cell-based; conditions: Table 23
Procedure: as §1, §2, §3

Candida glabrata = assay: as above; format: cell-based; conditions: Table 23
Procedure: as §1, §2, §3

[4] = system: Jurkat cells (human T cell leukemia line); assay: DNA fragmentation (DNA laddering) by gel electrophoresis; format: cell-based
Source text: A late stage characteristic of apoptosis is internucleosomal DNA cleavage that results in a distinctive ladder pattern that can be visualized by gel electrophoresis.

[5] = Table 28, 25% of the maximal mitotic block
[6] = Table 29, 50% of the maximal mitotic block

## CC(C)(C)c1[nH]cnc1/C=c1\[nH]c(=O)/c(=C/c2ccccc2)[nH]c1=O [compound 2421]
HT-29 human colon cells; HT-29, read-out: EC50 (M) Mean, Table 3.1, cell line not given, assay as above
  EC50: 2.22e-08 M
HT-29 human colon cells; Table 3.1, cell line not given
  % cytotox Mean: 88%

## CC(C)(C)c1[nH]cnc1/C=C1\NC(=O)[C@H](Cc2ccccc2)NC1=O [t-butyl-phenylahistin]
[1]
  potency in resistant MES-SA/DX5 versus sensitive MES-SA line: only slightly reduced
MCF-7 human breast tumor
  effect on estimated tumor growth with taxotere: significant potentiation of taxotere
Trichophyton rubrum
  antifungal potency compared with griseofulvin: equivalent in potency or in some cases more potent than griseofulvin
HuVEC cells
  microtubule depolymerization in HuVEC cells: induced microtubule depolymerization

## COc1cc(/C=c2\[nH]c(=O)/c(=C/c3nc[nH]c3C(C)(C)C)[nH]c2=O)cc(OC)c1 [KPU-16, tBu-ΔPLH-3,5-diOMe]
HT-29 human colon cells
  cytotoxic activity against HT-29 cells: showed high activity

## COc1ccc(/C=c2\[nH]c(=O)/c(=C/c3nc[nH]c3C(C)(C)C)[nH]c2=O)c(OC)c1OC [KPU-17, tBu-ΔPLH-2,3,4-TriOMe]
HT-29 human colon cells
  cytotoxic activity against HT-29 cells: also showed activity
Trichophyton rubrum
  antifungal potency compared with griseofulvin: equivalent in potency or in some cases more potent than griseofulvin

## COc1cc(OC)c(/C=c2\[nH]c(=O)/c(=C/c3nc[nH]c3C(C)(C)C)[nH]c2=O)c(OC)c1 [KPU-45, tBu-ΔPLH-2,4,6-TriOMe]
HT-29 human colon cells
  cytotoxic activity against HT-29 cells: also showed activity

## COc1cccc2c1C(=O)c1c(O)c3c(c(O)c1C2=O)C[C@@](O)(C(=O)CO)C[C@@H]3O[C@H]1C[C@H](N)[C@H](O)[C@H](C)O1 [doxorubicin, Doxorubicin]
[1]; versus MES-SA
  reduced susceptibility of MES-SA/DX5 cell line: 34 fold

## COc1cc2c(c(OC)c1OC)-c1ccc(OC)c(=O)cc1[C@@H](NC(C)=O)CC2 [Colchicine]
HuVEC cells
  microtubule depolymerization in HuVEC cells: induced microtubule depolymerization

## CC(C)(C)c1[nH]cnc1/C=c1\[nH]c(=O)/c(=C/c2cccc(OC(F)(F)F)c2)[nH]c1=O [KPU-80, TBu- ΔPLH—m-OCF3]
HT-29 human colon cells
  activity compared with tBu-dehydroPLH: higher activity than tBu-dehydroPLH

## CC(C)(C)c1[nH]cnc1/C=c1\[nH]c(=O)/c(=C/c2ccccc2)[nH]c1=O [tBu-dehydrophenylahistin, 3-Z-Benzylidene-6-(5″-tert-butyl-1H-imidazol-4″-Z-ylmethylene)-piperazine-2,5-dione]
HT-29 human colon cells; Table 1 data
  cytotoxic activity in comparison with dehydrophenylahistin: ~4 times

## C=CC(C)(C)c1[nH]cnc1/C=C1\NC(=O)[C@H](Cc2ccccc2)NC1=O [(−)-Phenylahistin]
Trichophyton rubrum
  potency versus T. rubrum: significantly less potent than the other compounds
[2]
  potency versus sensitive T. mentagrophytes isolate: weaker but more comparable to the others

## CC(C)(C)c1ocnc1/C=c1\[nH]c(=O)/c(=C/c2ccccc2F)[nH]c1=O [compound 2475, tBu-Oxadelta-PLH-2-F]
HT-29 human colon cells; Table 3.2, HT-29 cells, 48 hours, read-out: EC50 (M) Mean
  EC50: 4.66e-08 M

## (±)-phenylahistin
Human hepatic P450s
  metabolites detected: at least seven metabolites were detected
  share of major metabolites P1 and P3 in recovered metabolites: more than 60%

## COc1cc(/C=c2\[nH]c(=O)/c(=C/c3nc[nH]c3C(C)(C)C)[nH]c2=O)cc(OC)c1OC [KPU-11, tBu-ΔPLH-3,4,5-triOMe]
HT-29 human colon cells
  cytotoxic activity against HT-29 cells: also showed activity
Trichophyton rubrum
  antifungal potency compared with griseofulvin: equivalent in potency or in some cases more potent than griseofulvin

## COc1ccc(/C=C\c2cc(OC)c(OC)c(OC)c2)cc1O [CA4, Combretastatin A4]
[3]; [5]
  % time spent Attenuation: 39.50%
  % time spent Growth: 35.31%
  % time spent Shortening: 25.19%
  Freq. of (min-1) Catastrophe: 1.52 min⁻¹
  Freq. of (min-1) Rescue: 1.90 min⁻¹
  Mean duration (min) Attenuation: 0.45 min
  Mean duration (min) Growth: 0.27 min
  Mean duration (min) Shortening: 0.21 min
  Mean rates (μm/min) Shortening: 40.21 μm/min
[3]; Table 28, concentration effecting 25% of the maximal mitotic block in MCF7 cells
  Mean rates (μm/min) Growth: 10.59 μm/min
[3]; Table 28, dynamicity, 25% of the maximal mitotic block
  Dyn. (μm/min): 13.87 μm/min
[3]; [6]
  % time spent Attenuation: 36.23%
  % time spent Growth: 43.64%
  % time spent Shortening: 20.13%
  Dynamicity (μm/min): 10.91 μm/min
  Freq. of (min-1) Catastrophe: 1.09 min⁻¹
  Freq. of (min-1) Rescue: 2.79 min⁻¹
  Mean duration (min) Attenuation: 0.55 min
  Mean duration (min) Growth: 0.33 min
  Mean duration (min) Shortening: 0.22 min
  Mean rates (μm/min) Shortening: 29.88 μm/min
[3]; Table 29, concentration effecting 50% of the maximal mitotic block in MCF7 cells
  Mean rates (μm/min) Growth: 11.21 μm/min
[3]; concentrations effecting 25% or 50% of maximal mitotic block
  effect on MT dynamic instability: did not have a measurable effect on MT dynamic instability

## CC(=O)O[C@H]1C(=O)[C@@]2(C)[C@H]([C@H](OC(=O)c3ccccc3)[C@]3(O)C[C@H](OC(=O)[C@H](O)[C@@H](NC(=O)c4ccccc4)c4ccccc4)C(C)=C1C3(C)C)[C@]1(OC(C)=O)CO[C@@H]1C[C@@H]2O [Paclitaxel]
[1]; versus MES-SA, Example 11
  times less active against resistant MES-SA/Dx5 cells: ~400 times

## COc1cc([C@@H]2c3cc4c(cc3[C@@H](O[C@@H]3O[C@@H]5CO[C@@H](C)O[C@H]5[C@H](O)[C@H]3O)[C@H]3COC(=O)[C@H]23)OCO4)cc(OC)c1O [etoposide, Etoposide]
[1]; versus MES-SA
  reduced susceptibility of MES-SA/DX5 cell line: 60 fold

## C[C@@H]1[C@H](O)[C@@H](C)/C=C/C=C/C=C/C=C/C=C/C=C/C=C/[C@H](O[C@@H]2O[C@H](C)[C@@H](O)[C@H](N)[C@@H]2O)C[C@@H]2O[C@](O)(C[C@@H](O)C[C@@H](O)[C@H](O)CC[C@@H](O)C[C@@H](O)CC(=O)O[C@H]1C)C[C@H](O)[C@H]2C(=O)O [amphotericin B, Amphotericin B]
Candida albicans
  MFC C. albicans 10231: 0.5 µg/mL (≈ 0.541 µM)
  MFC C. albicans 90028: 0.5 µg/mL (≈ 0.541 µM)
  MIC C. albicans 10231: 0.5 µg/mL (≈ 0.541 µM)
  MIC C. albicans 90028: 0.5 µg/mL (≈ 0.541 µM)
Candida glabrata
  MFC C. glabrata: 1 µg/mL (≈ 1.08 µM)
  MIC C. glabrata: 1 µg/mL (≈ 1.08 µM)

## Cc1ccsc1/C=c1\[nH]c(=O)/c(=C/c2nc[nH]c2C(C)(C)C)[nH]c1=O [KPU-29, tBu-ΔPLH-3-Me-2-thienyl]
HT-29 human colon cells
  cytotoxic activity against HT-29 cells: exhibited activity

## COc1ccc(F)c(/C=c2\[nH]c(=O)/c(=C/c3nc[nH]c3C(C)(C)C)[nH]c2=O)c1 [KPU-81, TBu-ΔPLH-2-F-5-OMe]
HT-29 human colon cells
  activity compared with tBu-dehydroPLH: higher activity than tBu-dehydroPLH

## phenylahistin [halimide]
[4]
  DNA laddering, potency compared with KPU-2: much less potent
